In patent US12116358B2, “Substituted indoles and methods of use thereof” (EPIZYME, INC., priority 2018, dated 2024):
Read-outs that look alike come from different tables or passages of the source.

Assays:
H3K36me3 in A549 cells = assay: In-Cell Western (ICW) assay of SETD2 inhibitors (A549 assay); type: cell-based, human; settings: A549 cells, read-out: SETD2 A549
How it was run: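 H3K36me3 In-Cell Western: cells exposed to compound for 3 days at 4,000 cells/well, 37° C. DRAQ5 (1:1000) marked cell number, with 700/800-channel Licor read-out.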

SETD2(1434-1711) = biological target: T1, SETD2(1434-1711) (Homo sapiens, UniProt Q9BYW2); assay: SETD2 (1434-1711) assay; type: biochemical; settings: read-out: SETD2 (1434-1711)
T1 construct: SETD2 (1434-1711) Assay; catalogue N/A
T1 sequence (Q9BYW2 1434-1711): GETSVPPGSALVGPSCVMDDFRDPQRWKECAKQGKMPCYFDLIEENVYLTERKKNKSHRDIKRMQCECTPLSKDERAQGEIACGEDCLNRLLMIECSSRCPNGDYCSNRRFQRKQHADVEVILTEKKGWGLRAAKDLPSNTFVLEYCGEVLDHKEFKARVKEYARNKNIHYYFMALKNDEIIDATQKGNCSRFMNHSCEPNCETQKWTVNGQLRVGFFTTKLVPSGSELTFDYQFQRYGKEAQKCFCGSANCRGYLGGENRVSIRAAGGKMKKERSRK

Structure (SMILES)	IC50 (H3K36me3 in A549 cells; Homo sapiens) [nM]	IC50 (SETD2(1434-1711)) [nM]	IC50 (H3K36me3 in A549 cells) [nM]
CC(=O)N1CCN([C@H]2CCC[C@@H](NC(=O)c3cc4c(F)ccc(C)c4[nH]3)C2)C[C@H]1CO [compound 1098]	300	30	
CC(=O)N1CCN([C@@H]2CCC[C@@H](NC(=O)c3cc4cccc(C)c4[nH]3)C2)CC1 [compound 857]		7400	> 2000
Cc1ccc(F)c2cc(C(=O)N[C@@H]3CCC[C@@H](N4CCn5c(cnc5C(F)(F)F)C4)C3)[nH]c12 [compound 994]	> 2000	1800	
CN/C(=N\C#N)N1CCN([C@H]2CCC[C@@H](NC(=O)c3cc4c(F)ccc(C)c4[nH]3)C2)CC1 [compound 1114]	1600	40	
Cc1ccc(F)c2cc(C(=O)Nc3cccc([C@H]4CC[C@@H](N(C)C)C4)c3)[nH]c12 [compound 324]	1500	50	
Cc1ccc(=O)[nH]c1C(NC(=O)c1cc2cccc(C)c2[nH]1)C1CC1 (stereo not drawn) [compound 506]		4900	15100
Cc1ccc(F)c2cc(C(=O)Nc3cccc(C4(O)CCC(N(C)C)CC4)c3)[nH]c12 (stereo not drawn) [compound 195]	400	40	
Cc1ccc(F)c2cc(C(=O)Nc3cc(F)cc(N4CCC(N5CCn6ccnc6C5)C4)c3)[nH]c12 (stereo not drawn) [compound 29]		20	70
Cc1ccc(F)c2cc(C(=O)Nc3cccc(N4CCC5(CCNC5)CC4)c3)[nH]c12 [compound 241]		10	600
CCOC(=O)N1CCN([C@H]2CCC[C@@H](NC(=O)c3cc4c(F)ccc(C)c4[nH]3)C2)CC1 [compound 824]		10	40
Cc1ccc(F)c2cc(C(=O)Nc3cccc(N4CC5CCN(C)C5C4)c3)[nH]c12 (stereo not drawn) [compound 245]		10	600
CCOC(=O)N1CCC(N2CCC[C@@H](NC(=O)c3cc4c(F)ccc(C)c4[nH]3)C2)CC1 [compound 875]	> 2000	700	
CCN(CC)Cc1cccc(NC(=O)c2cc3cccc(C)c3[nH]2)c1 [compound 486]	10800	1800	
COC(=O)CC(NC(=O)c1cc2cccc(C)c2[nH]1)c1ccc(Br)cc1 (stereo not drawn) [compound 525]		12600	20900
Cc1ccc(F)c2cc(C(=O)NC3CCCC(N4CCN5C(=O)OCC5C4)C3)[nH]c12 (stereo not drawn) [compound 1136]		700	> 2000
Cc1ccc(F)c2cc(C(=O)Nc3cccc(N4CCOC(CN(C)C)C4)c3)[nH]c12 (stereo not drawn) [compound 167]	300	50	
Cc1ccc(F)c2cc(C(=O)NC3CCCC(N4CCN(C5CCOC5)C(=O)C4)C3)[nH]c12 (stereo not drawn) [compound 974]		2600	> 2000
CC(=O)N1CCN([C@@H]2CCC[C@@H](NC(=O)c3cc4c(F)ccc(C)c4[nH]3)C2)C[C@H]1CO [compound 1076]	1700	1400	
CCC(=O)N1CCN(C2CCCC(NC(=O)c3cc4c(F)ccc(C)c4[nH]3)C2)CC1C(F)(F)F (stereo not drawn) [compound 1164]		2100	> 2000
Cc1ccc(F)c2cc(C(=O)NC3CCCC(N4CCC(N(C)C(=O)C(C)(C)O)C4)C3)[nH]c12 (stereo not drawn) [compound 1145]		1800	> 2000
Cc1ccc(F)c2cc(C(=O)Nc3cccc(-c4cc5ccccn5n4)c3)[nH]c12 [compound 354]		300	> 2000
COCC1CN(c2cccc(NC(=O)c3cc4c(F)ccc(C)c4[nH]3)c2)CCO1 (stereo not drawn) [compound 133]	300	100	
CC(=O)N1CCN(C2CCCC(NC(=O)c3cc4c(F)ccc(C)c4[nH]3)C2)C(C)C1 (stereo not drawn) [compound 1021]		50	90
Cc1cccnc1C(NC(=O)c1cc2c(CO)ccc(C)c2[nH]1)C1CC1 (stereo not drawn) [compound 606]		> 50000	> 25000
CCC(NC(=O)c1cc2cccc(C)c2[nH]1)c1ncccc1C (stereo not drawn) [compound 471]	8500	5400	
Cc1ccc(F)c2cc(C(=O)Nc3cccc(N4CCC(N5CCN(C)CC5)CC4)c3)[nH]c12 [compound 152]	300	10	
Cc1cccc2cc(C(=O)NCCc3ccccc3-n3ccnc3)[nH]c12 [compound 580]	> 25000	24500	
Cc1ccc(F)c2cc(C(=O)NC3CCCC(N4CCC5(CC4)COC(=O)N5)C3)[nH]c12 (stereo not drawn) [compound 964]		500	> 2000
Cc1cccnc1C(NC(=O)c1cc2ccnc(C)c2[nH]1)C1CC1 (stereo not drawn) [compound 598]	> 25000	> 50000	
Cc1ccc(F)c2cc(C(=O)Nc3cccc(N4CCN(C(=O)CCO)CC4)c3)[nH]c12 [compound 149]	300	70	
